In PubChem BioAssay AID2060882 (Molecular Pharmacology Branch, DTP, NCI, 2025):

Test system: 898857-211-R-J1-PDC complex spheroids, growth % test/control
Assay: Anticancer human tumor 898857-211-R-J1-PDC patient-derived melanoma cell line growth inhibition [RAS]
Conditions: for IC50: curve of first compound; for viability, T/C: stronger effect = lower value
Summary of the method: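 Tumour cells grown as complex spheroids with HUVEC endothelial cells and mesenchymal stem cells, treated with RAS pathway inhibitor combinations. Each agent spans half-log steps from near clinical Cmax, or 10 microM where Cmax is unknown.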
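Note: spheroids exposed to compound for seven days before readout.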
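Throughout, for viability, T/C: 100% = DMSO vehicle control wells.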

## CCc1c2c(nc3ccc(O)cc13)-c1cc3c(c(=O)n1C2)COC(=O)[C@]3(O)CC + CCn1c(-c2cccnc2C(C)OC)c2c3cc(ccc31)N1CCOC(CC(NC(=O)C(C(C)C)N(C)C(=O)C3(F)CCN(C(=O)C#CC(C)(C)N(C)C)CC3)C(=O)N3CCCC(N3)C(=O)OCC(C)(C)C2)C1
Second compound 0.000949 µM
  IC50: 5.13 nM
Second compound 0.003 µM
  IC50: 4.91 nM
Second compound 0.00949 µM
  IC50: 4.21 nM
Second compound 0.03 µM
  IC50: 3.8 nM
Second compound 0.0949 µM
  IC50: 3.54 nM
Second compound 0.3 µM
  IC50: 2.75 nM
Second compound 0.000949 µM, first compound 0.000949 µM
  viability, T/C: 103%
Second compound 0.000949 µM, first compound 0.003 µM
  viability, T/C: 66.7%
Second compound 0.000949 µM, first compound 0.00949 µM
  viability, T/C: 31.6%
Second compound 0.000949 µM, first compound 0.03 µM
  viability, T/C: 10.2%
Second compound 0.000949 µM, first compound 0.0949 µM
  viability, T/C: 7.77%
Second compound 0.000949 µM, first compound 0.3 µM
  viability, T/C: 6.78%
Second compound 0.003 µM, first compound 0.000949 µM
  viability, T/C: 92.2%
Second compound 0.003 µM, first compound 0.003 µM
  viability, T/C: 64.1%
Second compound 0.003 µM, first compound 0.00949 µM
  viability, T/C: 31.5%
Second compound 0.003 µM, first compound 0.03 µM
  viability, T/C: 11.2%
Second compound 0.003 µM, first compound 0.0949 µM
  viability, T/C: 6.86%
Second compound 0.003 µM, first compound 0.3 µM
  viability, T/C: 5.62%
Second compound 0.00949 µM, first compound 0.000949 µM
  viability, T/C: 91.5%
Second compound 0.00949 µM, first compound 0.003 µM
  viability, T/C: 58.2%
Second compound 0.00949 µM, first compound 0.00949 µM
  viability, T/C: 30.2%
Second compound 0.00949 µM, first compound 0.03 µM
  viability, T/C: 11.7%
Second compound 0.00949 µM, first compound 0.0949 µM
  viability, T/C: 6.64%
Second compound 0.00949 µM, first compound 0.3 µM
  viability, T/C: 7.62%
Second compound 0.03 µM, first compound 0.000949 µM
  viability, T/C: 88.5%
Second compound 0.03 µM, first compound 0.003 µM
  viability, T/C: 55.3%
Second compound 0.03 µM, first compound 0.00949 µM
  viability, T/C: 28.3%
Second compound 0.03 µM, first compound 0.03 µM
  viability, T/C: 9.56%
Second compound 0.03 µM, first compound 0.0949 µM
  viability, T/C: 7.6%
Second compound 0.03 µM, first compound 0.3 µM
  viability, T/C: 5.55%
Second compound 0.0949 µM, first compound 0.000949 µM
  viability, T/C: 77.6%
Second compound 0.0949 µM, first compound 0.003 µM
  viability, T/C: 52.6%
Second compound 0.0949 µM, first compound 0.00949 µM
  viability, T/C: 29.5%
Second compound 0.0949 µM, first compound 0.03 µM
  viability, T/C: 8.59%
Second compound 0.0949 µM, first compound 0.0949 µM
  viability, T/C: 6.88%
Second compound 0.0949 µM, first compound 0.3 µM
  viability, T/C: 5.75%
Second compound 0.3 µM, first compound 0.000949 µM
  viability, T/C: 65.3%
Second compound 0.3 µM, first compound 0.003 µM
  viability, T/C: 48.6%
Second compound 0.3 µM, first compound 0.00949 µM
  viability, T/C: 20.1%
Second compound 0.3 µM, first compound 0.03 µM
  viability, T/C: 7.15%
Second compound 0.3 µM, first compound 0.0949 µM
  viability, T/C: 8.16%
Second compound 0.3 µM, first compound 0.3 µM
  viability, T/C: 5.2%
